Experimental data as given in patent US10144715B2, “Piperazine derivatives as liver X receptor modulators” (priority 2014, dated 2018).
Like-named read-outs stand apart in the source and are kept apart here.

Tests used:
LXR α LBD protein [1] = molecular target: T1, LXR α LBD protein (Homo sapiens (Human), UniProt Q13133); test: LXR α radioligand binding assay (SPA, competition with [3H]TO901317); conditions: read-out: LXRα Binding Ki
[2] = molecular target: Gal4 DNA binding domain fused to the LBD of LXRα in HEK293 cells (Homo sapiens (Human), UniProt Q13133); test: LXR luciferase transcriptional reporter gene assay, agonist mode, LXRα; format: cell-based; conditions: for EC50: read-out: Cell LXRα EC50
Chain of Gal4 DNA binding domain fused to the LBD of LXRα in HEK293 cells (Q13133 209-447): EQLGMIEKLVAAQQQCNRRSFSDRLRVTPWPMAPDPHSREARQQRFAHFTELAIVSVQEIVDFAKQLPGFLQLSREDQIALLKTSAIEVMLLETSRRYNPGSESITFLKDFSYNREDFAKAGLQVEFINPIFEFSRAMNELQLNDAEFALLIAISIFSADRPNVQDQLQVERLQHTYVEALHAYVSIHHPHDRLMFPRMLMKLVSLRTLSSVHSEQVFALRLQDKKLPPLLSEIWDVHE

LXR α LBD protein [3] = molecular target: T1, LXR α LBD protein; test: Human LXRα coactivator recruitment FRET assay, agonist mode; format: biochemical
Protocol: Two μL of the DMSO solutions were transferred to the plate and 38 μL of 10 nM LXRα-LBD or LXRβ-LBD (2×) were added immediately to the wells. The plate was shaken for 5 min at rt on an orbital micro shaker (DPC MicroMix® 5), after which 40 μL of 200 nM fluorescein-SRC2-3 peptide and 20 nM Terbium-anti-GST-antibody (Cat# PV3550, Life Technologies, Grand Island, N.Y.) solution (4×) were added to all. The plate was sealed and shaken for 2 min at rt, and incubated at rt for 2 h without agitation. […] The delay and window times were set at 100 and 200 microseconds, respectively. […] The percent control vs. compound concentration data were fit into a four-parameter model, and EC50 values were calculated from the fit as the concentrations corresponding to the inflection points on the concentration-response curves.

[4] = Biological Test Example 3, agonist mode

T1 sequence (Q13133 209-447): as above

CC1(C)CCC(CN2CCN(c3cccc(S(C)(=O)=O)c3)C[C@H]2c2ccccc2)CC1 [Cpd No 48-3, (R)-1-((4,4-dimethylcyclohexyl)methyl)-4-(3-(methylsulfonyl)phenyl)-2-phenylpiperazine]
Ki (LXR α LBD protein [1]): 2340 nM
Cell LXRα efficacy [2]: 4273 (20) %
EC50 [2]: 4270 nM
EC50 (LXR α LBD protein [3]; agonist mode): 5190 nM
FRET LXRα efficacy (LXR α LBD protein [3]; agonist mode): 31%

CS(=O)(=O)c1cccc(N2CCN(CC3CCC(F)(F)CC3)[C@@H](c3ccccc3)C2)c1 [48-13, (S)-1-((4,4-difluorocyclohexyl)methyl)-4-(3-(methylsulfonyl)phenyl)-2-phenylpiperazine]
Ki (LXR α LBD protein [1]): 867 nM
Cell LXRα efficacy [2]: 2624 (20) %
EC50 ([2]; agonist mode): 2620 nM
EC50 (LXR α LBD protein [3]; agonist mode): 632 nM
FRET LXRα efficacy (LXR α LBD protein [3]; agonist mode): 23%

CS(=O)(=O)c1cc(N2CCN(Cc3ccc(C(F)(F)F)c(Cl)c3)C(c3ccccc3)C2)ccc1CO (stereo not drawn) [47-4, (4-(4-(3-chloro-4-(trifluoromethyl)benzyl)-3-phenylpiperazin-1-yl)-2-(methylsulfonyl)phenyl)methanol]
Cell LXRα efficacy [2]: 914 (96) %
EC50 ([2]; agonist mode): 914 nM
EC50 (LXR α LBD protein [3]; agonist mode): 224 nM
FRET LXRα efficacy (LXR α LBD protein [3]; agonist mode): 109%

CS(=O)(=O)c1cccc(N2CCN(c3ccc(C(F)(F)F)cn3)[C@@H](c3ccccc3)C2)c1 [7-40, (S)-4-(3-(methylsulfonyl)phenyl)-2-phenyl-1-(5-(trifluoromethyl)pyridin-2-yl)piperazine]
EC50 ([2]; agonist mode): > 20000 nM
EC50 (LXR α LBD protein [3]; agonist mode): 45100 nM
FRET LXRα efficacy (LXR α LBD protein [3]; agonist mode): 70%

CC(C)(C)C1CN(c2ccc(F)c(S(C)(=O)=O)c2)CCN1c1nccc(C(F)(F)F)n1 (stereo not drawn) [7-29, 2-(2-(tert-butyl)-4-(4-fluoro-3-(methylsulfonyl)phenyl)piperazin-1-yl)-4-(trifluoromethyl)pyrimidine]
Cell LXRα efficacy [2]: 150 (92) %
EC50 ([2]; agonist mode): 150 nM
EC50 (LXR α LBD protein [3]; agonist mode): 161 nM
FRET LXRα efficacy (LXR α LBD protein [3]; agonist mode): 101%

CC(C)[C@@H]1CN(c2ccc(C(F)(F)F)c(S(C)(=O)=O)c2)CCN1C(=O)OC(C)(C)C [Cpd No 3-2, tert-butyl (R)-2-isopropyl-4-(3-(methylsulfonyl)-4-(trifluoromethyl)phenyl)piperazine-1-carboxylate]
Cell LXRα efficacy [2]: 14412 (19) %
EC50 ([2]; agonist mode): 14400 nM
EC50 (LXR α LBD protein [3]; agonist mode): 12000 nM
FRET LXRα efficacy (LXR α LBD protein [3]; agonist mode): 54%

CS(=O)(=O)c1cccc(N2CCN(C[C@H]3CC[C@@H](C(F)F)CC3)[C@H](c3ccccc3)C2)c1 (single isomer, unassigned) [48-16]
Cell LXRα efficacy [2]: 2437 (10) %
EC50 [2]: 2440 nM
EC50 (LXR α LBD protein [3]; agonist mode): 2450 nM
FRET LXRα efficacy (LXR α LBD protein [3]; agonist mode): 17%

CC(C)[C@@H]1CN(c2ccc(C#N)c(S(C)(=O)=O)c2)CCN1c1cccc(C(F)(F)F)n1 [7-38, (R)-4-(3-isopropyl-4-(6-(trifluoromethyl)pyridin-2-yl)piperazin-1-yl)-2-(methylsulfonyl)benzonitrile]
Cell LXRα efficacy [2]: 2960 (86) %
EC50 ([2]; agonist mode): 2960 nM
EC50 (LXR α LBD protein [3]; agonist mode): 3150 nM
FRET LXRα efficacy (LXR α LBD protein [3]; agonist mode): 204%

CS(=O)(=O)c1cccc(N2CCN(Cc3ccc(C(F)(F)F)nc3)C(c3ccc(Cl)cc3)C2)c1 (stereo not drawn) [46-54, 2-(4-chlorophenyl)-4-(3-(methylsulfonyl)phenyl)-1-((6-(trifluoromethyl)pyridin-3-yl)methyl)piperazine]
EC50 ([2]; agonist mode): > 20000 nM
FRET LXRα efficacy (LXR α LBD protein [3]; agonist mode): 49%

CC(C)COC(=O)N1CCN(c2cccc(S(C)(=O)=O)c2)CC1c1ccccc1 (stereo not drawn) [5-5, isobutyl 4-(3-(methylsulfonyl)phenyl)-2-phenylpiperazine-1-carboxylate]
Cell LXRα efficacy [2]: 3049 (6) %
EC50 ([2]; agonist mode): 3050 nM
EC50 (LXR α LBD protein [3]; agonist mode): 2500 nM
FRET LXRα efficacy (LXR α LBD protein [3]; agonist mode): 33%

Cc1ccc(CN2CCN(c3cccc(S(C)(=O)=O)c3)CC2c2ccccc2)cn1 (stereo not drawn) [46-40, 1-((6-methylpyridin-3-yl)methyl)-4-(3-(methylsulfonyl)phenyl)-2-phenylpiperazine]
EC50 ([2]; agonist mode): > 20000 nM
EC50 (LXR α LBD protein [3]; agonist mode): 4120 nM
FRET LXRα efficacy (LXR α LBD protein [3]; agonist mode): 38%

CS(=O)(=O)c1cccc(N2CCN(CC3CCN(CC(F)(F)F)CC3)[C@H](c3ccccc3)C2)c1 (single isomer, unassigned) [48-51]
EC50 ([2]; Biological Test Example 2, agonist mode): > 20000 nM
EC50 (LXR α LBD protein [3]; [4]): 9400 nM
FRET LXRα efficacy (LXR α LBD protein [3]; [4]): 37%
